pIC50: −log10 of the molar value. Activity calls are given as the source filed them. No cut-off for these calls is given here.

This is an account of results in ChEMBL document CHEMBL5104149, “Monoterpene substituted thiazolidin-4-ones as novel TDP1 inhibitors: Synthesis, biological evaluation and docking” (Bioorg Med Chem Lett, 2022).

Series [1] concerns the target Tyrosyl-DNA phosphodiesterase 1 (Homo sapiens, UniProt Q9NUW8). Description: Inhibition of recombinant human TDP1 measured by real-time oligonucleotide biosensor assay.
For series [2], the system named is HeLa. Description: Cytotoxicity against human HeLa cells at 10 uM in presence of 2 to 16 uM topotecan. Type of series: functional, cell-based.
A short description of series [3]: Cytotoxicity against human HEK293-A cells. Type of series: toxicity, cell-based.
Series [4] in a line: Cytotoxicity against human HeLa cells. The format is toxicity, cell-based.
In series [5] the test system is HeLa. Kind of series: Synergistic cytotoxicity against human HeLa cells assessed as combination index at 20 uM in presence of 5 uM topotecan. The format is functional.
The test system of series [6] is HeLa. Description: Synergistic cytotoxicity against human HeLa cells assessed as combination index at 5 uM in presence of 5 uM topotecan. The format is functional.

Tyrosyl-DNA phosphodiesterase 1, sequence (Q9NUW8 whole entry): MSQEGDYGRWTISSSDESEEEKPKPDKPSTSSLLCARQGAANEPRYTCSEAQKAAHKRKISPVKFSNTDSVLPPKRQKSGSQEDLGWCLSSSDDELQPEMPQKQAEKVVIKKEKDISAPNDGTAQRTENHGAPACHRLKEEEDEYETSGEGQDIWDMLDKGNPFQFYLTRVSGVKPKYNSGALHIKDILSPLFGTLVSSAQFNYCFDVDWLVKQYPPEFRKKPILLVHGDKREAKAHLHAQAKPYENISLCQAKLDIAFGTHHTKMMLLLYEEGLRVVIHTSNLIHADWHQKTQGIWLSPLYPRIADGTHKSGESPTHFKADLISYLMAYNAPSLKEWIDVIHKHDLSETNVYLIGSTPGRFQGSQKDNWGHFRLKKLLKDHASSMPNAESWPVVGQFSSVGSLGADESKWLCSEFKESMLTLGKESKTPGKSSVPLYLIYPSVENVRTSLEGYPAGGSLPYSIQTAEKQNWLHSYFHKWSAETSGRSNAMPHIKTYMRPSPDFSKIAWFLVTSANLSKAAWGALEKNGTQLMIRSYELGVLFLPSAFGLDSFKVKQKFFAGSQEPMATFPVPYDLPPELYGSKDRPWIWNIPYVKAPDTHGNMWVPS

The pIC50 is the negative decadic logarithm of the IC50, by convention in mol/L. Take `CC(=O)C1=C(O)C=C2Oc3c(-c4csc(N/N=C/CC(C)CCC=C(C)C)n4)c(O)c(C)c(O)c3[C@@]2(C)C1=O` (stereo partly drawn): the pIC50 in series [1] is 7.80.

On to `COc1ccc(C2SCC(=O)N2Cc2ccccc2)cc1` (stereo not drawn), for which the negative-log IC50 (pIC50) in series [1] is under 4.00.

As to `CC1=CC[C@@H](CC2SCC(=O)N2Cc2ccccc2)C1(C)C` (stereo partly drawn), the negative logarithm of the IC50 (pIC50) in series [1] is under 4.00.

For `CC(C)CCCC(C)CC1SCC(=O)N1Cc1ccccc1` (stereo not drawn), the pIC50 in series [1] was under 4.00.

The term CC50 denotes the concentration at which the toxic effect on the cells reaches its halfway point. A higher CC50 goes with lower toxicity to the cells. Turning to `CC1(C)C2CC=C(COc3ccc(C4SCC(=O)N4Cc4ccccc4)cc3)C1C2` (stereo not drawn), the pIC50 in series [1] is 5.80. The result in series [2] was Active. Also, the CC50 in series [3] stood at 51 µM; in series [4], 74 µM. Moreover, in series [5], the CI was determined as 0.21.

Regarding `CC1(C)C2CC=C(CC3SCC(=O)N3Cc3ccccc3)C1C2` (stereo not drawn), in series [1], the pIC50 was under 4.00.

Regarding `CC(C)CCCC(C)CCOc1ccc(C2SCC(=O)N2Cc2ccccc2)cc1` (stereo not drawn), the pIC50 in series [1] was 5.92. The outcome in series [2] was Active. Moreover, the CC50 was over 100 µM in series [3] and 66 µM in series [4]. Also, the CI in series [5] turned out to be 0.29; in series [6] it was 0.51.

For the compound `CC1(C)C2CC=C(CCOc3ccc(C4SCC(=O)N4Cc4ccccc4)cc3)C1C2` (stereo not drawn), the pIC50 in series [1] is 5.68. Further, in series [2], the outcome was Active. In addition, the CC50 in series [3] and in series [4] was over 100 µM each time. The CI in series [5] is given as 0.21; in series [6], 0.32.

Turning to `COc1cnc2c(c1)C(=O)c1c-2n(CCCNC2=NCCS2)c(=O)c2cc([N+](=O)[O-])ccc12`, in series [1], the pIC50 is 4.92.

On to `CC1(C)C2CC=C(C3SCC(=O)N3Cc3ccccc3)C1C2` (stereo not drawn), for which the pIC50 in series [1] was under 4.00.

For the compound `O=C1CSC(c2ccccc2)N1Cc1ccccc1` (stereo not drawn), in series [1], the pIC50 was under 4.00.

On to `CC1=CC[C@@H](CCOc2ccc(C3SCC(=O)N3Cc3ccccc3)cc2)C1(C)C` (stereo partly drawn), for which, in series [1], the pIC50 was 5.92. Moreover, the outcome in series [2] was Active. The 50% cytotoxic concentration (CC50) worked out at 90 µM in series [3] and 79 µM in series [4]. Besides, the CI in series [5] is on record as 0.16; in series [6], 0.25.

As to `CC(C)=CCCC(C)CC1SCC(=O)N1Cc1ccccc1` (stereo not drawn), the pIC50 in series [1] is under 4.00.

On to `CC(C)=CCC/C(C)=C/COc1ccc(C2SCC(=O)N2Cc2ccccc2)cc1` (stereo not drawn), for which the pIC50 in series [1] is 5.54. In addition, the result in series [2] was Active. Also, the CC50 in series [3] and in series [4] was over 100 µM throughout. Besides, in series [5], the CI amounted to 0.13.

In the case of `CC(C)=CCCC(C)CCOc1ccc(C2SCC(=O)N2Cc2ccccc2)cc1` (stereo not drawn), the pIC50 in series [1] is under 4.00.
